Holding throughout (assay): Kinase panel (mobility shift)
Holding throughout (format): biochemical

In one experiment the target is T1, TAOK2 (Homo sapiens, UniProt Q9UL54).
T1 sequence (Q9UL54 1-1235): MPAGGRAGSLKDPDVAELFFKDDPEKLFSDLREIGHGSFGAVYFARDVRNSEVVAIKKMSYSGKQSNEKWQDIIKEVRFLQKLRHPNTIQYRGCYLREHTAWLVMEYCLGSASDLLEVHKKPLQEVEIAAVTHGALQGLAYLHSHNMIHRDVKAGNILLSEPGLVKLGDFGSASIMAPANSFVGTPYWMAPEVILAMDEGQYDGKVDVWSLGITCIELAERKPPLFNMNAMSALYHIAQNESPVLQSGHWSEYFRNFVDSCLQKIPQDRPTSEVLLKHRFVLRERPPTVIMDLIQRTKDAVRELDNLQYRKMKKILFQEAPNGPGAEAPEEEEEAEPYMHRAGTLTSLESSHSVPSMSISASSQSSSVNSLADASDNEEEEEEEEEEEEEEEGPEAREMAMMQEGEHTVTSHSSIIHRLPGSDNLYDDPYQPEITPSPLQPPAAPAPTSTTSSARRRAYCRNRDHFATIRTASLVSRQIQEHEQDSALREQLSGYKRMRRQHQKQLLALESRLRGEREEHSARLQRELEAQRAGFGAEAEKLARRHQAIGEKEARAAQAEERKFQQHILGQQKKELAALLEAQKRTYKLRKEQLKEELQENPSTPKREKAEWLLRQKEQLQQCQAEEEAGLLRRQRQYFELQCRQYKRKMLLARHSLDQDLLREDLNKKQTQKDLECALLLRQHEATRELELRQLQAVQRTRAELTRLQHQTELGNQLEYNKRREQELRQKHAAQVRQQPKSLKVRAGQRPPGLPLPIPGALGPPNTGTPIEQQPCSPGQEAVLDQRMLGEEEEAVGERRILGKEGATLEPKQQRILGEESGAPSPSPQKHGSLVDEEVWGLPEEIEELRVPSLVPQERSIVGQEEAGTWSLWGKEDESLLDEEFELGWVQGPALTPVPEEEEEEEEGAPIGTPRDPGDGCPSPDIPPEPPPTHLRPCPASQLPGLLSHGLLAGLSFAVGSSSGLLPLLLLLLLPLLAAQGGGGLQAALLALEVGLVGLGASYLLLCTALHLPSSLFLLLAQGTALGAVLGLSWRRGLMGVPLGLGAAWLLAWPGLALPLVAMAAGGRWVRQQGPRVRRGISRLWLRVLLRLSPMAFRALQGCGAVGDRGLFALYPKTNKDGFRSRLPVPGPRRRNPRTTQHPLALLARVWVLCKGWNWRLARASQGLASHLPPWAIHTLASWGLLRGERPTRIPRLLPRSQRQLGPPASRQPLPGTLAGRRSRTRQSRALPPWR
Put shortly: (§1)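 Each kinase was incubated with a fluorescently labeled substrate and compound in a standard reaction mix. After the reaction was stopped, product and substrate were separated on microfluidic chips by electrophoretic mobility shift. Activity came from comparing product and substrate peak fluorescence, graded A (95% or greater), B (90%-94%) or C (80%-89%) at 5 um.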

In another experiment the target is TRKA (Homo sapiens, UniProt P04629). The gist of the method:
as §1

The target in a further experiment is LCK (Homo sapiens, UniProt P06239). Put shortly: as §1
The next experiment has as its target EPH-A5 (Homo sapiens, UniProt P54756). Particulars: at 5 um. The gist of the method: as §1
The next experiment concerns the target T2, TAOK3 (Homo sapiens, UniProt Q9H2K8).
T2 sequence (Q9H2K8 1-898): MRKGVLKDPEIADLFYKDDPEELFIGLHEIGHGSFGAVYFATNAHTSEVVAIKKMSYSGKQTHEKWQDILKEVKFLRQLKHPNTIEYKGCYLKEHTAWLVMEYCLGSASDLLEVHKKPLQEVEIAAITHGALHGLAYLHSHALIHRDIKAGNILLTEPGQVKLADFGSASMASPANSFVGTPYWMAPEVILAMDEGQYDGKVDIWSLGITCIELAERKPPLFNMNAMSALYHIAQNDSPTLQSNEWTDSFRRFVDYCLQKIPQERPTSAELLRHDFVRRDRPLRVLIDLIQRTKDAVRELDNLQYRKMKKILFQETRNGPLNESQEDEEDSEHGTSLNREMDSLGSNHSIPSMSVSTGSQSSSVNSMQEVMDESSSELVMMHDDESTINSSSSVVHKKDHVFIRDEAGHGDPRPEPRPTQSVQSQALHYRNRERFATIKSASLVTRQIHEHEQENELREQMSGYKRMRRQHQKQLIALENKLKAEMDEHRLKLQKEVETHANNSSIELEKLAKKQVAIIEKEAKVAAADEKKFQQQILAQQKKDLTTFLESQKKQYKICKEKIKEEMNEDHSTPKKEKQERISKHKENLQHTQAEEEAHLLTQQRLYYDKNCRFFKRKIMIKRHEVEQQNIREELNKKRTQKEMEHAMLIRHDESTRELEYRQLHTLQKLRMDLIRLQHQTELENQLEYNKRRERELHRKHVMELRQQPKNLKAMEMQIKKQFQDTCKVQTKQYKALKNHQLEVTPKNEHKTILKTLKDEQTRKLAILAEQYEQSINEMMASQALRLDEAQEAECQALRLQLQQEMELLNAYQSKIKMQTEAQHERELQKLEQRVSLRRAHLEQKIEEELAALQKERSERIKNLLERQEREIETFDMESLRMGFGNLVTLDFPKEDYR
Put shortly: as §1

Sequence of TRKA (P04629 33-796, species assumed): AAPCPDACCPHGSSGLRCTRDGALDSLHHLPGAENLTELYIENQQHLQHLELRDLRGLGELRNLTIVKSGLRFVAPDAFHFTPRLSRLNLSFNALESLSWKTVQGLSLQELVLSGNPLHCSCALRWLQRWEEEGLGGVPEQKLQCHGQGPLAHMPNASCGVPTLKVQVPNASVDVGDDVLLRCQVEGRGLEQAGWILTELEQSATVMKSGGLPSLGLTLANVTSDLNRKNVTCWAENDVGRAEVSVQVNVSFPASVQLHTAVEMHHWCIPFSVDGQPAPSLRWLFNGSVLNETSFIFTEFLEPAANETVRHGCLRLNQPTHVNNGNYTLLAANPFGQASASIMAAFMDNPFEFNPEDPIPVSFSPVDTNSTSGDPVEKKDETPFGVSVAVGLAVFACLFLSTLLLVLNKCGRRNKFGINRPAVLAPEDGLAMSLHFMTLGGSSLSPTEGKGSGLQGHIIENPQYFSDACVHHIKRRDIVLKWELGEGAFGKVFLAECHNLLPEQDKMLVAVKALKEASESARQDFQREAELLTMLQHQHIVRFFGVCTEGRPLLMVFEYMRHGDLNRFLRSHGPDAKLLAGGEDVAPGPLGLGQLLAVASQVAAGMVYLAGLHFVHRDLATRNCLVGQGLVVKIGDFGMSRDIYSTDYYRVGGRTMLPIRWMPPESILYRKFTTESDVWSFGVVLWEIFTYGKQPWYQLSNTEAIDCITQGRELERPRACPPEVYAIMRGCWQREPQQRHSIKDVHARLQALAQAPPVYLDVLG
Sequence of EPH-A5 (P54756 25-1037, species assumed): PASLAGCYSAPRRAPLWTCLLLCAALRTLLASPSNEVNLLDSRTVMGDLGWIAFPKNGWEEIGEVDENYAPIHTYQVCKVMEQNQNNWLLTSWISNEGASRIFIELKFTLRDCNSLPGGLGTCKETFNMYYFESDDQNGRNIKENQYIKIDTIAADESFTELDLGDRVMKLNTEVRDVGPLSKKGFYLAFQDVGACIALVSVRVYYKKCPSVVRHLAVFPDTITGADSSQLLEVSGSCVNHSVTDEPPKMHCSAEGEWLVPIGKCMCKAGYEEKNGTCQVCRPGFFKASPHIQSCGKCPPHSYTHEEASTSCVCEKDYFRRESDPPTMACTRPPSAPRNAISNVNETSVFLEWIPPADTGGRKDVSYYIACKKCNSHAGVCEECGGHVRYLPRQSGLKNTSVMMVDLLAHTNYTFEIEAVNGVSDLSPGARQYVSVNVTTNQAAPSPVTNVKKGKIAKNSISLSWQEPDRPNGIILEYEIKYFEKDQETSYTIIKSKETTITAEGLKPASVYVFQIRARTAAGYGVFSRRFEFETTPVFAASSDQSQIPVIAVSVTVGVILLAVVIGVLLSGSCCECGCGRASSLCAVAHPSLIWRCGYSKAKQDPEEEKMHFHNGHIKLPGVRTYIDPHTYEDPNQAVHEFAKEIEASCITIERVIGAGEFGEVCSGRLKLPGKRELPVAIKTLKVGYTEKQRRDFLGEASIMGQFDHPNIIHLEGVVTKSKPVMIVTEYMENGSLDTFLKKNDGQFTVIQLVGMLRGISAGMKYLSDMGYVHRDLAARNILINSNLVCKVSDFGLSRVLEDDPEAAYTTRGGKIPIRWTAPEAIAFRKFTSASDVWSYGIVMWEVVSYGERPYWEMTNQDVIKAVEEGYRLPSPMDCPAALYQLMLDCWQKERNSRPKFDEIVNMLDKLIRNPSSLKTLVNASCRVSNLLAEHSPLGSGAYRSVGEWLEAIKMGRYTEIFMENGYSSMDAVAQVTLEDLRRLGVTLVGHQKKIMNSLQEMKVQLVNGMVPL
Sequence of LCK (P06239 whole entry, species assumed): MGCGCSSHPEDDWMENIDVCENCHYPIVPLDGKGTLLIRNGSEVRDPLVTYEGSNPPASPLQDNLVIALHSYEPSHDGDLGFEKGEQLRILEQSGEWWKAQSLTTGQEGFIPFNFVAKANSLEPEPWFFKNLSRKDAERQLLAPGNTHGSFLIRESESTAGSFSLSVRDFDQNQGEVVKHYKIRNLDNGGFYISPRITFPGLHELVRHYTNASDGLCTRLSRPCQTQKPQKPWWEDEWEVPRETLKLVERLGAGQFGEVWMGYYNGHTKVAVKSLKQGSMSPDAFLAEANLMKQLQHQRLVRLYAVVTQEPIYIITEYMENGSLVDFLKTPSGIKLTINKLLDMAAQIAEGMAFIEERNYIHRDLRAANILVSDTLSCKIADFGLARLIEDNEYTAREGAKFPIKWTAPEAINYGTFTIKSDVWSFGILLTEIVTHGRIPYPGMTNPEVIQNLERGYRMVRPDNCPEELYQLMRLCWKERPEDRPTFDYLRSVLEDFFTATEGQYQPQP

Usually inhibition stands for the change of the read-out against control, counted positive when it falls. In the case of `CNC(=O)c1cc(Oc2ccc(NC(=O)c3nc(SC)oc3-c3ccc(F)c(F)c3)cc2)ccn1` [Compound 4], the inhibition at 5 µM on TAOK2 is less than 50%; at TRKA, 50 to 79%; at LCK it was 80 to 89%; on TAOK3 it was 50 to 79%. In addition, the “inhibition of kinase activity, EPH-A5” value on EPH-A5 was “E (category E is less than 50%)”.
Consider `CSc1nc(C(=O)Nc2ccc(Oc3ccnc(N)c3Cl)c(F)c2)c(-c2ccc(F)cc2)o1` [Compound 1], for which the inhibition at 5 µM on TAOK2, at TRKA, on LCK and at TAOK3 was less than 50% throughout. Besides, at EPH-A5, the “inhibition of kinase activity, EPH-A5” value is reported as “E (category E is less than 50%)”.
Consider `CNC(=O)c1cc(Oc2c(F)cc(NC(=O)c3nc(NC)sc3-c3ccc(F)cc3)cc2F)ccn1` [Compound 19], for which the inhibition at 5 µM was less than 50% at TAOK2, 50 to 79% at TRKA, 50 to 79% on LCK and 50 to 79% at TAOK3. The “inhibition of kinase activity, EPH-A5” value on EPH-A5 was “D (category D for 50-79)”.
For `CSc1nc(C(=O)Nc2ccc(Oc3ccnc(C(=O)NC4COC4)c3)c(F)c2)c(-c2ccc(F)cc2)o1` [Compound 31], the inhibition at 5 µM at TAOK2, at TRKA, on LCK and at TAOK3 was less than 50% throughout. In addition, the “inhibition of kinase activity, EPH-A5” value at EPH-A5 is given as “E (category E is less than 50%)”.
As for `CNC(=O)c1cc(Oc2ccc(NC(=O)c3nc(SC)oc3-c3ccc(OC)cc3)cc2)ccn1` [Compound 7], the inhibition at 5 µM is less than 50% on TAOK2, less than 50% at TRKA, not below 95% at LCK and less than 50% at TAOK3. For the same molecule, the “inhibition of kinase activity, EPH-A5” value at EPH-A5 is “E (category E is less than 50%)”.
As to `CSc1nc(C(=O)Nc2ccc(Oc3ccnc(C(=O)NC4CCN(C)CC4)c3)c(F)c2)c(-c2ccc(F)cc2)o1` [Compound 42], the inhibition at 5 µM on TAOK2, on TRKA, on LCK and on TAOK3 was less than 50% each time. The “inhibition of kinase activity, EPH-A5” value on EPH-A5 is listed as “E (category E is less than 50%)”.
As for `COc1nc(C(=O)Nc2ccc(Oc3ccnc(C(=O)NC4COC4)c3)c(F)c2)c(-c2ccc(F)cc2)o1` [Compound 39], the inhibition at 5 µM on TAOK2, at TRKA, at LCK and on TAOK3 was less than 50% throughout. In addition, on EPH-A5, the “inhibition of kinase activity, EPH-A5” value is on record as “E (category E is less than 50%)”.
With `CNC(=O)c1cc(Oc2ccc(NC(=O)c3nc(SC)oc3-c3ccc(F)s3)cc2F)ccn1` [Compound 16], the inhibition at 5 µM at TAOK2, at TRKA, at LCK and on TAOK3 was less than 50% each time. Also, the “inhibition of kinase activity, EPH-A5” value on EPH-A5 is given as “E (category E is less than 50%)”.
On to `COc1nc(C(=O)Nc2ccc(Oc3ccnc(C(=O)NCC(F)(F)F)c3)c(F)c2)c(-c2ccc(F)cc2)o1` [Compound 43], for which the inhibition at 5 µM at TAOK2, at TRKA, at LCK and at TAOK3 was less than 50% throughout. Further, the “inhibition of kinase activity, EPH-A5” value at EPH-A5 is recorded as “E (category E is less than 50%)”.
`CNC(=O)c1cc(Oc2ccc(NC(=O)c3nc(NC)sc3-c3ccc(F)cc3F)cc2F)ccn1` [Compound 21]: the inhibition at 5 µM was less than 50% on TAOK2, 50 to 79% on TRKA, less than 50% on LCK and 50 to 79% at TAOK3. Besides, the “inhibition of kinase activity, EPH-A5” value at EPH-A5 was “D (category D for 50-79)”.
As for `CSc1nc(C(=O)Nc2ccc(Oc3ccnc(C(=O)NCC(F)(F)F)c3)c(F)c2)c(-c2ccc(F)cc2)o1` [Compound 40], the inhibition at 5 µM on TAOK2, on TRKA, at LCK and on TAOK3 was less than 50% in each case. Moreover, the “inhibition of kinase activity, EPH-A5” value at EPH-A5 is given as “E (category E is less than 50%)”.
